Read-outs that look alike come from different tables or passages of the source.
Assays:
[1] = elimination of GA metabolites in SD rats intravenously injected with GA; assay type: in vivo, Sprague-Dawley (SD) rats; details: female SD rats, GA iv, faeces collected 24 h after injection
Description: (§1) Briefly, after diluting serum and urine samples with water to obtain suitable concentrations, they were digested with subtilisin (0.91 U/ml), followed by the addition of astragaloside IV (used as an internal standard; Fujifilm Wako Pure Chemicals, Osaka, Japan), and deproteinized using 80% ethanol. […] The transitions (precursor to daughter) monitored and retention times were as follows: ESI(+), 743.4 to 567.5 m/z (35 and 25 V for cone voltage and collision energy, respectively) for compound 1 (8.1 min); ESI(–), 565.5 to 96.5 m/z (80 and 60 V) for 2 (9.6 min); ESI(–), 549.5 to 96.5 m/z (80 and 60 V) for 3 (15.4 min); ESI(+), 727.3 to 551.2 m/z (30 and 25 V) for 4 (11.3 min); ESI(+), 647.6 to 453.6 m/z (40 and 20 V) for 3MGA (15.0 min); ESI(+), 471.3 to 91.0 m/z (40 and 20 V) for GA (13.4 min); ESI(+), 823.5 to 453.6 m/z (30 and 20 V) for GL (18.4 min); and ESI(+), 785.4 to 143.0 m/z (30 and 20 V) for astragaloside IV (3.0 min). Linear regressions over the concentration range of 2 nM to 2 µM for each compound were examined using the peak-area ratio of the compounds to their internal standards and the least-squares method (r ^ 2 > 0.98). The detection limits for 1, GL, and GA were 6.4 nM, and those for 2, 3, and 4, and 3MGA were 3.2 nM.
FIGURE 6 Elimination of glycyrrhizin (GL) metabolites into bile in Sprague-Dawley (SD) rats. Female SD rats (10 week-old) were anesthetized using intraperitoneal injection of urethane (1 g/kg), and biliary tracts were cannulated. […] Concentrations of GA metabolites were measured using liquid chromatography-tandem mass spectrometry (LC-MS/MS) and accumulated elimination of GA-metabolites are means ± standard error (S.E: n = 3).

[2] = pharmacokinetics of GA metabolites in EHBRs orally treated with GA; assay type: in vivo, Eisai hyperbilirubinuria rats (EHBRs); details: for concentration at 12 h: Eisai hyperbilirubinuria rat (EHBR), rat, plasma, 200 mg/kg, GA 0.20 g/kg oral, read-out: plasma concentration 12 h after oral administration of GA
Description: Pharmacokinetic Experiments of GA Metabolites in EHBRs Orally Treated With GA
Male and female EHBRs (9 week-old) were anaesthetized by an intraperitoneal injection of urethane (1 g/kg) and their jugular veins were exposed. GA suspended in 0.5% carboxymethylcellulose was then administered orally (200 mg/kg) to the unconscious rats, and blood samples were collected from the jugular vein while urine samples were collected using a metabolic cage at appropriate times over a 12 h period.
LC-MS/MS Analysis for GA Metabolites
as §1
FIGURE 5 Pharmacokinetic profiles of glycyrrhizin (GL) metabolites in female (A–C) and male (D–F) Eisai hyperbilirubinuria rats (EHBRs). […] Data of GA, 3MGA, 1, 2, and 3 in (A) and GA, 3MGA, 2, and 3 for (D) are relatively small; their magnified graphs are shown in (B,E), respectively. Concentrations of GA metabolites were measured using liquid chromatography-tandem mass spectrometry (LC-MS/MS), and data are means ± standard error (S.E: n = 4).

[3] = parameters: method as in Takahashi et al., 2019; details: ref Takahashi et al., 2019, cited from earlier work
anti-3MGA-mAb = experiment: competitive ELISA using anti-3MGA-mAb; assay type: binding; details: competitive ELISA in aqueous solution, 3MGA calibrated to 100%
Description: ELISA System Using anti-3MGA-mAb
An ELISA system to measure the cross-reactivity of compounds 3 and 4 by using 3MGA-HSA-conjugate and anti-3MGA-mAb was used according to the protocol in our previous study ([Ishiuchi et al., 2019]). To measure the concentration of 3 in human serum samples using the system ELISA, 3 was dissolved in normal human serum (Sigma) to prepare standard solutions (16 nM–2.0 µM) and the samples or standard solutions (each 10 µl) and ethanol (40 µl) were well mixed and centrifuged (1.2 × 10^4 × g for 7 min). The supernatant was dried up under nitrogen flow at 40°C overnight, and the residue was dissolved in Can Get Signal® Solution 1 (Toyobo Co., Ltd: Osaka, Japan) (50 µl). […] When the observed values were more than 400 nM, the deproteinized serum samples were further diluted with Can Get Signal® Solution 1 for two or four times and analyzed again to observe values from 15.6 to 400 nM.
FIGURE 4 Development of enzyme-linked immunosorbent assay (ELISA) system to measure concentrations of 3 in human serum samples using anti-18β-glycyrrhetyl-3-O-glucuronide (3MGA)-monoclonal antibody (mAb). […] Standard lines between absorbance and concentrations of compound 3 are shown (D) Accuracy of ELISA system in measuring concentrations of 3 in human serum samples using anti-3MGA-mAb. Human serum samples were deproteinized, and concentration of 3 was measured using ELISA system. […]

[4] = tested on: mineralocorticoid receptor (MR); parameters: method as in earlier work; details: ref Ulmann et al., 1975; Armanini et al., 1983; Monder et al., 1989; cited from earlier work

Row | Compound | accumulative elimination in faeces [1] | blood concentration in male rats relative to female rats ([2]; EHBRs, 12 h after oral GA) | concentration at 12 h ([2]; female EHBRs) [nM] | concentration at 12 h ([2]; male EHBRs) [nM] | serum concentration of 3 relative to that of GA (fold higher) ([3]; human serum) | maximum serum concentration ([3]; previous clinical study) [µM] | cross-reactivity to anti-3MGA-mAb (anti-3MGA-mAb) [%] | binding activity (ED50) on mineralocorticoid receptor [4]
1 | CC1(C)[C@@H](OS(=O)(=O)O)CC[C@]2(C)[C@H]3C(=O)C=C4[C@@H]5C[C@@](C)(C(=O)O[C@@H]6O[C@H](C(=O)O)[C@@H](O)[C@H](O)[C@H]6O)C[C@H](O)[C@]5(C)CC[C@@]4(C)[C@]3(C)CC[C@@H]12 [Compound 1, 22α-hydroxy-18β-glycyrrhetyl-3-O-sulfate-30-glucuronide] | below detectable levels | approximately 7 fold | 32000 | 177000 |  |  |  | 
2 | CC1(C)[C@@H](OS(=O)(=O)O)CC[C@]2(C)[C@H]3C(=O)C=C4[C@@H]5C[C@@](C)(C(=O)O)C[C@H](O)[C@]5(C)CC[C@@]4(C)[C@]3(C)CC[C@@H]12 [Compound 2, 22α-hydroxy-18β-glycyrrhetyl-3-O-sulfate] | 0.86 ± 0.1 nmol |  | 10000 | 8200 |  |  |  | 
3 | CC1(C)[C@@H](OS(=O)(=O)O)CC[C@]2(C)[C@H]3C(=O)C=C4[C@@H]5C[C@@](C)(C(=O)O)CC[C@]5(C)CC[C@@]4(C)[C@]3(C)CC[C@@H]12 [Compound 3, 18β-glycyrrhetyl-3-O-sulfate] | 1.8 ± 0.3 nmol |  | 2000 | 2200 | 1.5–2 fold | 4.2 | 23 | 
4 | CC1(C)[C@@H](O[C@@H]2O[C@H](C(=O)O)[C@@H](O)[C@H](O)[C@H]2O)CC[C@]2(C)[C@H]3C(=O)C=C4[C@@H]5C[C@@](C)(C(=O)O)CC[C@]5(C)CC[C@@]4(C)[C@]3(C)CC[C@@H]12 [Compound 3MGA, 18β-glycyrrhetyl-3-O-glucuronide, reference compound] | below detectable levels |  | 100 | 1600 |  |  |  | 
5 | CC1(C)[C@@H](O)CC[C@]2(C)[C@H]3C(=O)C=C4[C@@H]5C[C@@](C)(C(=O)O)CC[C@]5(C)CC[C@@]4(C)[C@]3(C)CC[C@@H]12 [GA, glycyrrhetinic acid, reference compound] | 9.8 ± 1.3 nmol |  | 2700 | 2600 |  |  |  | about 100 µM
6 | CC1(C)[C@@H](O[C@H]2O[C@H](C(=O)O)[C@@H](O)[C@H](O)[C@H]2O[C@@H]2O[C@H](C(=O)O)[C@@H](O)[C@H](O)[C@H]2O)CC[C@]2(C)[C@H]3C(=O)C=C4[C@@H]5C[C@@](C)(C(=O)O)CC[C@]5(C)CC[C@@]4(C)[C@]3(C)CC[C@@H]12 [GL, glycyrrhizin] | below detectable levels |  |  |  |  |  |  | 
